According to US20020028788A1, “Vaginal active agent delivery procedures and formulations thereof” (priority 1998, published 2002):
Marks after values point to notes of the source that are not given here.

What was measured:
cattle [1] = assay: Follicular dynamics and oestrus following vaginal oestradiol 17β or intramuscular oestradiol benzoate; assay type: in vivo; details: for Follicle wave turnover (i.e. DF3) / No follicle wave turnover (i.e. no DF3): number of animals
cattle [2] = details: past attempts; vaginal administration by capsule; doses typically 10 times higher than intra-muscular; cited from earlier work
[3] = Plasma oestradiol concentration and pharmacokinetics following vaginal or intramuscular administration; assay type: in vivo; details: cattle, oestradiol benzoate
Method: Error bars are standard error means (n=3).
FIG. 2 is a plasma oestradiol concentrations following vaginal administration of 10 mg oestradiol benzoate (open square), 10 mg oestradiol benzoate with 1:1 molar ratio β-cyclodextrin (open diamond), 10 mg oestradiol benzoate with 1:1 molar ratio hydroxypropyl β-cyclodextrin (open circle) or 10 mg oestradiol benzoate with 1:1 molar ratio γ-cyclodextrin (open triangle). Error bars are standard error means (n=4).
Error bars are standard error means (n=4).

[4] = 2.5 mg oestradiol 17β, vaginal administration
[5] = 5.0 mg oestradiol 17β, vaginal administration
[6] = 2.5 mg oestradiol 17β, vaginal administration, group n = 8
[7] = 5.0 mg oestradiol 17β, vaginal administration, group n = 8
[8] = 2 mg oestradiol benzoate, intramuscular administration
[9] = 2 mg oestradiol benzoate, intramuscular administration, group n = 7

C[C@]12CC[C@@H]3c4ccc(O)cc4CC[C@H]3[C@@H]1CC[C@@H]2O [oestradiol 17β]
Age of ovulatory DF2 (cattle [1]; [4]): 12.0 ± 0.6 ^ d
Age of ovulatory DF3 (cattle [1]; [4]): 6 days
Day DF2 emerged (cattle [1]; [4]): 9.9 ± 0.4^a
Diameter DF2 on Day 13 (cattle [1]; [4]): 9.9 ± 0.5^a mm
Diameter of ovulatory DF2 (cattle [1]; [4]): 15.6 ± 0.7 ^ mm
Diameter of ovulatory DF3 (cattle [1]; [4]): 12 mm
Growth of DF2 from Day 13-17 (cattle [1]; [4]): 2.4 ± 0.6^a mm
Day of oestrus (cattle [1]; 2.5 mg oestradiol 17β, vaginal administration, n = 7): 22.0 ± 0.0 (n = 7)
Age of ovulatory DF2 (cattle [1]; [5]): 11.5 ± 0.5 ^ d
Age of ovulatory DF3 (cattle [1]; [5]): 7.0 ± 0.5^ d
Day DF2 emerged (cattle [1]; [5]): 10.0 ± 0.6^a
Day DF3 emerged (cattle [1]; [5]): 15.7 ± 0.6 ^
Diameter DF2 on Day 13 (cattle [1]; [5]): 9.3 ± 0.8^a mm
Diameter of ovulatory DF2 (cattle [1]; [5]): 17.0 ± 1.0 ^ mm
Diameter of ovulatory DF3 (cattle [1]; [5]): 13.7 ± 0.7 ^ mm
Growth of DF2 from Day 13-17 (cattle [1]; [5]): 0.9 ± 0.8^ab mm
Day of oestrus (cattle [1]; 5.0 mg oestradiol 17β, vaginal administration, n = 8): 22.0 ± 0.0 (n = 8)
Follicle wave turnover (i.e. DF3) (cattle [1]; [6]): 3
No follicle wave turnover (i.e. no DF3) (cattle [1]; [6]): 5
Follicle wave turnover (i.e. DF3) (cattle [1]; [7]): 6
No follicle wave turnover (i.e. no DF3) (cattle [1]; [7]): 2
influence on follicular dynamics (cattle [1]; vaginal administration, 5 mg oestradiol 17β and γ-cyclodextrin in molar ratio 0.5:1, compared with i.m. 2 mg oestradiol benzoate): influences follicular dynamics in a similar manner

C[C@]12CC[C@@H]3c4ccc(OC(=O)c5ccccc5)cc4CC[C@H]3[C@@H]1CC[C@@H]2O [oestradiol benzoate]
oestrus expression and fertility (cattle [2]): poor oestrus expression and poor fertility
Age of ovulatory DF3 (cattle [1]; [8]): 6.0 ± 0.5^ d
Day DF2 emerged (cattle [1]; [8]): 9.6 ± 0.6^a
Day DF3 emerged (cattle [1]; [8]): 17.0 ± 0.4 ^
Diameter DF2 on Day 13 (cattle [1]; [8]): 9.6 ± 1.0^a mm
Diameter of ovulatory DF3 (cattle [1]; [8]): 14.2 ± 0.4 ^ mm
Growth of DF2 from Day 13-17 (cattle [1]; [8]): −0.6 ± 0.7^b mm
Day of oestrus (cattle [1]; 2 mg oestradiol benzoate, intramuscular administration, n = 7): 22.6 ± 0.2 (n = 7)
Follicle wave turnover (i.e. DF3) (cattle [1]; [9]): 6
No follicle wave turnover (i.e. no DF3) (cattle [1]; [9]): 1
absorption following vaginal administration [3]: poor and variable absorption
